Series [1] in a line: Storage stability in sealed vial at 50° C. for 4 weeks, % residue. The format is physicochemical. The following applies: 40320 min. The procedure:
One sample each of the following compounds was stored in a sealed vial at 50° C. for 4 weeks.
The sodium salt, zwitter ion, and monohydrochloride of 7β-[2-(2-imino-4-thiazoline-4-yl)acetamido]-3-[1-[2-(N,N-dimethylamino)ethyl]-1H-tetrazol-5-yl]thiomethyl-3-cephem-4-carboxylic acid, as well as the lyophilized powders of said acid dihydrochloride (amorphous powders, Example 4-(2)), the crystals of said acid dihydrochloride (Example 1-(3)) and the non-crystalline powders obtained by drying said dihydrochloride crystals (Example 1-(4)) as obtained in accordance with this invention.
The percent residue figures are as follows.

Series [2] deals with Bacillus subtilis ATCC 6633. Put plainly: Bioassay by the cylinder method. It is filed as cell-based. The procedure:
The bioassay by the cylinder method was carried out using 7β-[2-(2-imino-4-thiazolin-4-yl)acetamido]-3-[1-[2-(N,N-dimethylamino)ethyl]-1H-tetrazol-5-yl]thiomethyl-3-cephem-4-carboxylic acid .2H Cl salt as the standard product against Bacillus subtilis ATCC 6633 as the assay microorganism.
The potency of the anhydrous zwitter ion compound was 1000 mcg/ml. The calculated potency of a sample containing 2 moles of HCl per mole of the zwitter ion compound and none of non-bonding hydrochloric acid, water, residual solvent or other impurity is 878 mcg/ml.

The subject of series [3] is Escherichia coli NIHJ JC-2. The series can be described thus: Antibacterial spectrum (agar dilution), MIC. It is filed as cell-based. Particulars: NIHJJC2, on anhydrate basis, E. coli NIHJ JC-2. The source says: (§1) The antibacterial potency (in terms of MIC) and toxicity of the contemplated compound (I) on anhydrate basis
(§2) (1) Antibacterial spectrum (agar dilution)
For orientation: In agar dilution, organisms are placed on agar that contains the substance at set levels.

A further series deals with Escherichia coli O-111. Put plainly: Antibacterial spectrum (agar dilution), MIC. It is filed as cell-based. The following applies: O111, on anhydrate basis, E. coli O-111.
Description: as §1, §2

For the next series, the system named is Escherichia coli T-7. Put plainly: Antibacterial spectrum (agar dilution), MIC. It is filed as cell-based. The following applies: T7, on anhydrate basis, E. coli T-7.
Description: as §1, §2

In a further series the test system is Klebsiella pneumoniae DT. Put plainly: Antibacterial spectrum (agar dilution), MIC. Particulars: on anhydrate basis, K. pneumoniae DT. It is filed as cell-based.
Description: as §1, §2

The test system of series [4] is Proteus morganii IFO 3848. The series can be described thus: Antibacterial spectrum (agar dilution), MIC. The format is cell-based. Particulars: Morganella morganii, IFO3848, on anhydrate basis, P. morganii IFO 3848.
Description: as §1, §2

The test system of series [5] is Proteus vulgaris IFO 3988. The series can be described thus: Antibacterial spectrum (agar dilution), MIC. It is filed as cell-based. Particulars: IFO3988, on anhydrate basis, P. vulgaris IFO 3988.
Description: as §1, §2

Series [6] has as its system Staphylococcus aureus 1840. Put plainly: Antibacterial spectrum (agar dilution), MIC. It is filed as cell-based. Particulars: on anhydrate basis, S. aureus 1840.
Description: as §1, §2

Series [7] has as its system Staphylococcus aureus FDA 209 P. Put plainly: Antibacterial spectrum (agar dilution), MIC. The format is cell-based. The following applies: FDA209, on anhydrate basis, S. aureus FDA 209 P.
Description: as §1, §2

Series [8] is described as follows: Acute toxicity (mouse, intraperitoneal). The following applies: in vivo, ip, 1:1 (by mole) mixture of compound (I) and sodium carbonate, anhydrate basis, read-out: CD50 (the source's name).
Description: as §1
(2) Acute toxicity (mouse, intraperitoneal)
The acute toxicity data relates to a 1:1 (by mole) mixture of contemplated compound (I) and sodium carbonate.

The nature of series [9]: Stability in storage / shelf-life (statement). The format is physicochemical.
Series [10] in a line: Water solubility (statement). The format is physicochemical.
For series [11] the following is noted: West German Patent Application Laid Open No. 2461478; cited from earlier work.

The values that follow come from patent US4146710A, “Solid cephalosporin salt” (Takeda Chemical Industries, Ltd., priority 1976, dated 1979).

The structures appear in SMILES notation. Converted amounts (≈) assume the structure as drawn. Where a name gives a salt, the structure may show the parent alone. Read-outs that look alike come from different tables or passages of the source. A value given as a limit tells only on which side of the number the result lay.

As to `CN(C)CCn1nnnc1SCC1=C(C(=O)O)N2C(=O)[C@@H](NC(=O)Cc3csc(N)n3)[C@H]2SC1` [Example 1-(3), 7β-[2-(2-imino-4-thiazolin-4-yl)acetamido]-3-[1-[2-(N,N-dimethylamino)ethyl]-1H-tetrazol-5-yl]thiomethyl-3-cephem-4-carboxylic acid], in series [1], the “% Residue” value turned out to be 99%.
For `CN(C)CCn1nnnc1SCC1=C(C(=O)O)N2C(=O)[C@@H](NC(=O)Cc3csc(N)n3)[C@H]2SC1` [Example 1-(4), 7β-[2-(2-imino-4-thiazolin-4-yl)acetamido]-3-[1-[2-(N,N-dimethylamino)ethyl]-1H-tetrazol-5-yl]thiomethyl-3-cephem-4-carboxylic acid], in [1], the “% Residue” value was determined as 98%.
Still for that read-out and setting: to `CN(C)CCn1nnnc1SCC1=C(C(=O)O)N2C(=O)[C@@H](NC(=O)Cc3csc(N)n3)[C@H]2SC1` [Example 4-(2), 7β-[2-(2-imino-4-thiazolin-4-yl)acetamido]-3-[1-[2-(N,N-dimethylamino)ethyl]-1H-tetrazol-5-yl]thiomethyl-3-cephem-4-carboxylic acid] belongs 86%.
With `CN(C)CCn1nnnc1SCC1=C(C(=O)O)N2C(=O)[C@@H](NC(=O)Cc3csc(=N)[nH]3)[C@H]2SC1` [Example 7-(3), 5β-[2-(2-imino-4-thiazolin-4-yl)acetamido]-3-[1-[2-(N,N-dimethylamino)ethyl]-1H-tetrazol-5-yl]thiomethyl-3-cephem-4-carboxylic acid], the “Bioassay (potency)” value in series [2] was determined as 865 µg/mL.
With `CN(C)CCn1nnnc1SCC1=C(C(=O)O)N2C(=O)[C@@H](NC(=O)Cc3csc(N)n3)[C@H]2SC1` [Monohydrochloride (lyophilizate), 7β-[2-(2-imino-4-thiazoline-4-yl)acetamido]-3-[1-[2-(N,N-dimethylamino)ethyl]-1H-tetrazol-5-yl]thiomethyl-3-cephem-4-carboxylic acid, reference compound], the “% Residue” value in series [1] was 73%.
On to `CN(C)CCn1nnnc1SCC1=C(C(=O)O)N2C(=O)[C@@H](NC(=O)Cc3csc(N)n3)[C@H]2SC1` [Sodium salt (lyophilizate), 7β-[2-(2-imino-4-thiazoline-4-yl)acetamido]-3-[1-[2-(N,N-dimethylamino)ethyl]-1H-tetrazol-5-yl]thiomethyl-3-cephem-4-carboxylic acid, reference compound], for which the “% Residue” value in series [1] is given as 76%.
A word on the MIC: it is the lowest concentration found to suppress growth. Read a low MIC as inhibition by little substance. For the molecule `CN(C)CCn1nnnc1SCC1=C(C(=O)O)N2C(=O)[C@@H](NC(=O)Cc3csc(N)n3)[C@H]2SC1` [compound (I)], the MIC in series [3] amounted to 0.2 µg/mL (≈ 0.38 µM); in the series on Escherichia coli O-111, 0.05 µg/mL (≈ 0.0951 µM); against Escherichia coli T-7, 1.56 µg/mL (≈ 2.97 µM); against Klebsiella pneumoniae DT it was 0.1 µg/mL (≈ 0.19 µM); in series [4], 0.39 µg/mL (≈ 0.742 µM); in series [5], 1.56 µg/mL (≈ 2.97 µM). Further, the MIC in [6] was 0.78 µg/mL (≈ 1.48 µM); in series [7] it was 0.39 µg/mL (≈ 0.742 µM). For the same molecule, the LD50 in [8] is at least 20000 mg/kg. The stability in storage entry in series [9] was “highly stable in storage”.
On to `CN(C)CCn1nnnc1SCC1=C(C(=O)O)N2C(=O)[C@@H](NC(=O)Cc3csc(N)n3)[C@H]2SC1` [compound (II), 7β-[2-(2-imino-4-thiazolin-4-yl)acetamido]-3-[1-[2-(N,N-dimethylamino)ethyl]-1H-tetrazol-5-yl]thiomethyl-3-cephem-4-carboxylic acid, reference compound], for which, in series [1] (listed as Zwitter ion(lyophilizate)), the “% Residue” value was determined as 54%. In addition, the “Bioassay (potency)” value in series [2] (listed as anhydrous zwitter ion compound) was found to be 1000 µg/mL. The water solubility result in [10] was “high water solubility”. The “stability on long shelf-life” value in series [9] (free acid form (zwitter ion) or salt with a base) was “unstable in the free acid form (zwitter ion) or its salt with a base”. Further, the antibiotic activity result in series [11] is recorded as “excellent antibiotic activity”.
